{"source": "patent US7014866B2", "about": "“High dose solid unit oral pharmaceutical dosage form of amorphous nelfinavir mesylate and process for making same” (Hoffmann-La Roche Inc., priority 2001, dated 2006)", "origin": "cited, not measured here", "details": "water at pH less than or equal to 4", "note": "Counter-ions that a name gives are not always drawn."}
{"compound": "Cc1c(O)cccc1C(=O)N[C@@H](CSc1ccccc1)[C@H](O)CN1C[C@H]2CCCC[C@H]2C[C@H]1C(=O)NC(C)(C)C", "note": "[Nelfinavir mesylate]", "values": [{"measurement": "solubility in water", "value": "slightly soluble"}]}
